Source: patent US20240336630A1, “MAP4K1 INHIBITORS” (Blueprint Medicines Corporation, priority 2021, published 2024)

target: T1, MAP4K1 (HPK1) (Homo sapiens, UniProt Q92918); assay: Inhibition of MAP4K1 biochemical enzymatic activity (EZReader 2 electrophoretic mobility shift); settings: HPK1 (Invitrogen), S6K2tide 1.5 μM, 120 min; ATP 26 μM or 1000 μM, not stated which for Table 3
T1 construct: purchased Invitrogen
Text: MAP4K1 (HPK1) and relevant off-target enzymatic activity was monitored using the Perkin Elmer electrophoretic mobility shift technology platform—the EZReader 2. […] Within the linear, steady-state phase of the kinase enzymatic reaction, the mixed pool of phosphorylated (product) and non-phosphorylated (substrate) peptides was passed through the microfluidic system of the PerkinElmer EZ Reader 2, under an applied electric potential difference. The presence of the phosphate group on the product peptide provided a difference in mass and charge between that of the substrate peptide, resulting in a separation of the substrate and product pools in the sample (Perrin et al. 2010). As the product and substrate peptide mixture passes the lasers within the instrument, these pools are detected (λex=488 nm, λem=568 nm) and resolved as separate peaks. The ratio between these peaks reflects the activity of the compound at that concentration, in that well, under those conditions.
Inhibitors were dissolved in 100% DMSO at a stock concentration of 10 mM. A 100×, 10-point, 4-fold serial dilution of each inhibitor was created in 100% DMSO either manually or on a Hamilton STAR liquid handler, starting at a relevant concentration, usually 1 mM. A volume of 0.130 μL of each concentration was transferred to the relevant wells of a 384-well plate (Greiner 781 201) in duplicate using a TTPLabtech Mosquito nano-litre dispenser. Using a Multidrop Combi, the remaining constituents of the kinase reaction were added to the 130 nL of dosed compound as follows (see table below for final reaction details):
Enzyme activity assays at the ^APPKM for ATP or 1 mM ATP: In each well of a 384-well plate, 0.1-15 nM of untreated enzyme was incubated in a total of 13 μL of buffer (100 mM HEPES pH 7.5, 0.015% Brij 35, 10 mM MgCl2, 1 mM DTT) with 1.5 μM fluorescent peptide and 20-1000 μM ATP, at 25° C., for 60-180 minutes in the presence or absence of a dosed concentration series of compound (1% DMSO final concentration). The kinase reactions were stopped by the addition of 70 μl of Stop buffer (100 mM HEPES pH 7.5, 0.015% Brij 35, 35 mM EDTA and 0.2% of Coating Reagent 3 (Caliper Lifesciences)). The plates were read on a Caliper EZReader 2 as described above.

T1 sequence (Q92918 whole entry): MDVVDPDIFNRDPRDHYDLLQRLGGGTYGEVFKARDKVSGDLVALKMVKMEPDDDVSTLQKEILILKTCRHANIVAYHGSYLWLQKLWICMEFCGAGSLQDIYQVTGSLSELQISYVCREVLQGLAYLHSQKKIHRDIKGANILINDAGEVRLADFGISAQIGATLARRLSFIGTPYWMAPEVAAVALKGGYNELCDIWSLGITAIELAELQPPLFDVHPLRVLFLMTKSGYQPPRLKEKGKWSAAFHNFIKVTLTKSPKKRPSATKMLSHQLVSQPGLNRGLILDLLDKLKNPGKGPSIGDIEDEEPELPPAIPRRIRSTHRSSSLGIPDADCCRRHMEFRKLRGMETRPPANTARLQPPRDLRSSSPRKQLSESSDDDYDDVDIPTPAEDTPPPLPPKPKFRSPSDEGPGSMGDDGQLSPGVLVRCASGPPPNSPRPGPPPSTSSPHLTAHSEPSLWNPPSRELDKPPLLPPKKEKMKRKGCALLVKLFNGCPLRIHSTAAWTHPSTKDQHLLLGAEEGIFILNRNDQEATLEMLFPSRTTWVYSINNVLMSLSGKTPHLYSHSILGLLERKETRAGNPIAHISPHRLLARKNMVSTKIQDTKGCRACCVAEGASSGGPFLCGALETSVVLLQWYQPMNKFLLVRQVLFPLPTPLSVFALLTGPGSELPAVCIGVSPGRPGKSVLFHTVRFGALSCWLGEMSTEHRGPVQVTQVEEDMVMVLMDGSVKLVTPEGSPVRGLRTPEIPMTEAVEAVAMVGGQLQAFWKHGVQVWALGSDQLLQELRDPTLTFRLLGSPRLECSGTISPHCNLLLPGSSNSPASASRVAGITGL

**Q.** For CC[C@@](C)(O)c1cnc(O[C@H](C)C[C@@H](C)S(C)(=O)=O)c2cnc(Nc3ccc4c(n3)[C@@H](C)[C@H](C)OC4=O)cc12 (single isomer, unassigned) [Compound 67], which IC50 is on record?
**A.** 0.66 nM

**Q.** How did the IC50 turn out when CC[C@@](C)(O)c1cnc(O[C@H]2C[C@@H](S(C)(=O)=O)C2)c2cnc(Nc3ccc4c(n3)[C@@H](C)C(C)(C)OC4=O)cc12 (single isomer, unassigned) [Compound 66] was run?
**A.** 1.74 nM

**Q.** Which IC50 does the source give for COc1ncc(C(C)(C)O)c2cc(Nc3ccc4c(n3)CCOC4=O)ncc12 [Compound 8] here?
**A.** 4.73 nM

**Q.** With C[C@@H]1c2nc(Nc3cc4c([C@@](C)(O)C5CC5)cnc(OCC(F)(F)F)c4cn3)ccc2C(=O)OC1(C)C (single isomer, unassigned) [Compound 54] as the molecule, how does the IC50 read?
**A.** 16.9 nM

**Q.** Which IC50 does the source give for C[C@@H]1c2nc(Nc3cc4c(C(C)(O)C5CC5)cnc(OCC(F)F)c4cn3)ccc2C(=O)OC1(C)C (some centres unmarked) [Compound 47] here?
**A.** 1.57 nM

**Q.** With CC[C@@](C)(O)c1cnc(O[C@H]2C[C@@H](S(C)(=O)=O)C2)c2cnc(Nc3ccc4c(n3)[C@@H](C)[C@H](C)OC4=O)cc12 (single isomer, unassigned) [Compound 62] as the molecule, how does the IC50 read?
**A.** 1.66 nM

**Q.** C[C@@H]1c2nc(Nc3cc4c([C@@](C)(O)C(F)(F)F)cnc(OC5CC5)c4cn3)ccc2C(=O)OC1(C)C (single isomer, unassigned) [Compound 50] was tested. Which IC50 did it give?
**A.** 4.51 nM

**Q.** With CC[C@@](C)(O)c1cnc(NC2CC2)c2cnc(Nc3ccc4c(n3)[C@@H](C)C(C)(C)OC4=O)cc12 (single isomer, unassigned) [Compound 29] as the molecule, how does the IC50 read?
**A.** 1.43 nM

**Q.** Which IC50 does the source give for COc1ncc(C(C)(C)O)c2cc(Nc3ccnc(C(C)(C)F)n3)ncc12 [Compound 6] here?
**A.** 9.23 nM

**Q.** For CCOc1ncc([C@@](C)(O)C2CC2)c2cc(Nc3ccc4c(n3)[C@@H](C)C(C)(C)OC4=O)ncc12 (single isomer, unassigned) [Compound 33], which IC50 is on record?
**A.** 0.56 nM

**Q.** For CCOc1ncc([C@@](C)(O)C2CC2)c2cc(Nc3ccc4c(n3)[C@@H](C)C(C)(C)OC4=O)ncc12 (single isomer, unassigned) [Compound 32], which IC50 is on record?
**A.** 15.5 nM

**Q.** Which IC50 does the source give for C[C@@H]1c2nc(Nc3cc4c([C@@](C)(O)C5CC5)cnc(OCC(F)(F)F)c4cn3)ccc2C(=O)OC1(C)C (single isomer, unassigned) [Compound 55] here?
**A.** 15.9 nM

**Q.** How did the IC50 turn out when CC(=O)N1CC(Oc2ncc(C(C)(C)O)c3cc(Nc4ccc5c(n4)[C@@H](C)[C@H](C)OC5=O)ncc23)C1 [Compound 45] was run?
**A.** 1.91 nM

**Q.** For CC[C@H](O)c1cnc(OC2CN(S(C)(=O)=O)C2)c2cnc(Nc3ccc4c(n3)[C@@H](C)[C@H](C)OC4=O)cc12 (single isomer, unassigned) [Compound 59], which IC50 is on record?
**A.** 12.9 nM

**Q.** COc1ncc(C(C)(C)O)c2cc(Nc3cnc(C#N)c(N4CCC[C@@H]4C)n3)ncc12 [Compound 13] was tested. Which IC50 did it give?
**A.** 6.36 nM

**Q.** Which IC50 does the source give for COC[C@@](C)(O)c1cnc(OC2CC2)c2cnc(Nc3ccc4c(n3)[C@@H](C)[C@H](C)OC4=O)cc12 (single isomer, unassigned) [Compound 35] here?
**A.** 67.3 nM

**Q.** Which IC50 does the source give for C[C@@H]1OC(=O)c2ccc(Nc3cc4c(C(C)(C)O)cnc(OC5CN(S(C)(=O)=O)C5)c4cn3)nc2[C@H]1C [Compound 57, (7S,8R)-2-((5-(2-Hydroxypropan-2-yl)-8-((1-(methylsulfonyl)azetidin-3-yl)oxy)-2,7-naphthyridin-3-yl)amino)-7,8-dimethyl-7,8-dihydro-5H-pyrano[4,3-b]pyridin-5-one] here?
**A.** 0.2 nM

**Q.** How did the IC50 turn out when COc1ccc(C(C)(C)O)c2cc(Nc3ccnc(C(C)(C)F)n3)ncc12 [Compound 5] was run?
**A.** 18.4 nM

**Q.** Which IC50 does the source give for CC[C@](C)(O)c1cnc(OC2CC2)c2cnc(Nc3ccc4c(n3)C3(CC3)C(C)(C)OC4=O)cc12 (single isomer, unassigned) [Compound 41] here?
**A.** 6.55 nM

**Q.** Which IC50 does the source give for CC[C@@](C)(O)c1cnc(OCC(F)(F)F)c2cnc(Nc3ccc4c(n3)[C@@H](C)C(C)(C)OC4=O)cc12 (single isomer, unassigned) [Compound 52] here?
**A.** 23.2 nM

**Q.** How did the IC50 turn out when COC[C@@](C)(O)c1cnc(OC2CC2)c2cnc(Nc3ccc4c(n3)[C@@H](C)[C@H](C)OC4=O)cc12 (single isomer, unassigned) [Compound 36] was run?
**A.** 3.86 nM

**Q.** Which IC50 does the source give for CC[C@@](C)(O)c1cnc(NC2CC2)c2cnc(Nc3ccc4c(n3)[C@@H](C)C(C)(C)OC4=O)cc12 (single isomer, unassigned) [Compound 28] here?
**A.** 3.03 nM

**Q.** Which IC50 does the source give for CC[C@@](C)(O)c1cnc(OCC(F)(F)F)c2cnc(Nc3ccc4c(n3)[C@@H](C)C(C)(C)OC4=O)cc12 (single isomer, unassigned) [Compound 53] here?
**A.** 3.75 nM

**Q.** Which IC50 does the source give for CC[C@@H](O)c1cnc(OC2CN(S(C)(=O)=O)C2)c2cnc(Nc3ccc4c(n3)[C@@H](C)C(C)(C)OC4=O)cc12 (single isomer, unassigned) [Compound 64] here?
**A.** 0.67 nM

**Q.** How did the IC50 turn out when C[C@@H]1c2nc(Nc3cc4c([C@@](C)(O)C(F)(F)F)cnc(OC5CC5)c4cn3)ccc2C(=O)OC1(C)C (single isomer, unassigned) [Compound 51] was run?
**A.** 12.3 nM

**Q.** How did the IC50 turn out when C[C@@H]1c2nc(Nc3cc4c([C@@](C)(O)C5CCC5)cnc(OC5CC5)c4cn3)ccc2C(=O)OC1(C)C (single isomer, unassigned) [Compound 44] was run?
**A.** 1.53 nM

**Q.** C[C@@H]1OC(=O)c2ccc(Nc3cc4c(C(C)(C)O)cnc(O[C@H]5C[C@@H](S(C)(=O)=O)C5)c4cn3)nc2[C@H]1C [Compound 56] was tested. Which IC50 did it give?
**A.** 0.45 nM

**Q.** For CC[C@@](C)(O)c1cnc(O[C@H](C)C[C@@H](C)S(C)(=O)=O)c2cnc(Nc3ccc4c(n3)[C@@H](C)[C@H](C)OC4=O)cc12 (single isomer, unassigned) [Compound 68], which IC50 is on record?
**A.** 0.41 nM

**Q.** Which IC50 does the source give for CC[C@@](C)(O)c1cnc(O[C@H](C)C[C@@H](C)S(C)(=O)=O)c2cnc(Nc3ccc4c(n3)[C@@H](C)C(C)(C)OC4=O)cc12 (single isomer, unassigned) [Compound 70] here?
**A.** 0.49 nM

**Q.** With CNc1ncc(C(C)(C)O)c2cc(Nc3ccnc(C(C)(C)C)n3)ncc12 [Compound 3] as the molecule, how does the IC50 read?
**A.** 23.1 nM

**Q.** With COc1ncc(C(C)(C)O)c2cc(Nc3cnc(C#N)c(C(C)C)n3)ncc12 [Compound 7] as the molecule, how does the IC50 read?
**A.** 17.5 nM

**Q.** With COc1ncc(C(C)(C)O)c2cc(Nc3ccnc(N4CC[C@@H]4C)n3)ncc12 [Compound 9] as the molecule, how does the IC50 read?
**A.** 1.63 nM

**Q.** How did the IC50 turn out when CC1(C)Cc2nc(Nc3cc4c(C(C)(O)c5ccccc5)cnc(OC5CC5)c4cn3)ccc2C(=O)O1 (centres unmarked) [Compound 46] was run?
**A.** 31.9 nM

**Q.** How did the IC50 turn out when CC[C@@H](O)c1cnc(OC2CN(S(C)(=O)=O)C2)c2cnc(Nc3ccc4c(n3)[C@@H](C)C(C)(C)OC4=O)cc12 (single isomer, unassigned) [Compound 63] was run?
**A.** 2.94 nM

**Q.** Which IC50 does the source give for CC[C@H](O)c1cnc(OC2CN(S(C)(=O)=O)C2)c2cnc(Nc3ccc4c(n3)[C@@H](C)[C@H](C)OC4=O)cc12 (single isomer, unassigned) [Compound 58] here?
**A.** 2.52 nM

**Q.** How did the IC50 turn out when CC[C@@](C)(O)c1cnc(O[C@H](C)C[C@@H](C)S(C)(=O)=O)c2cnc(Nc3ccc4c(n3)[C@@H](C)C(C)(C)OC4=O)cc12 (single isomer, unassigned) [Compound 69] was run?
**A.** 0.89 nM

**Q.** Which IC50 does the source give for CC[C@@](C)(O)c1cnc(O[C@H]2C[C@@H](S(C)(=O)=O)C2)c2cnc(Nc3ccc4c(n3)[C@@H](C)C(C)(C)OC4=O)cc12 (single isomer, unassigned) [Compound 65] here?
**A.** 0.39 nM

**Q.** With CC[C@@](C)(O)c1cnc(OC2CC2)c2cnc(Nc3ccc4c(n3)[C@@H](C)C(C)(C)OC4=O)cc12 (single isomer, unassigned) [Compound 30] as the molecule, how does the IC50 read?
**A.** 2.38 nM

**Q.** C[C@@H]1c2nc(Nc3cc4c([C@@](C)(O)C5CCC5)cnc(OC5CC5)c4cn3)ccc2C(=O)OC1(C)C (single isomer, unassigned) [Compound 43] was tested. Which IC50 did it give?
**A.** 6.72 nM

**Q.** Which IC50 does the source give for CC1(C)CCc2nc(Nc3cc4c(C(C)(C)O)cnc(OC5CC5)c4cn3)ccc2C(=O)O1 [Compound 22] here?
**A.** 23.6 nM

**Q.** With C[C@@H]1OC(=O)c2ccc(Nc3cc4c(C(C)(C)O)cnc(OCC5(F)CC5)c4cn3)nc2[C@H]1C [Compound 37] as the molecule, how does the IC50 read?
**A.** 2.01 nM

**Q.** How did the IC50 turn out when COc1ncc(C(C)(C)O)c2cc(Nc3ccnc(C(C)(C)C)n3)ncc12 [Compound 4] was run?
**A.** 2.34 nM

**Q.** Which IC50 does the source give for CC1(C)Cc2nc(Nc3cc4c(C5(O)CCOCC5)cnc(OC5CC5)c4cn3)ccc2C(=O)O1 [Compound 42] here?
**A.** 3.38 nM

**Q.** For COc1ncc(C(C)(C)O)c2cc(Nc3ccnc(N4CCC[C@@H]4C)n3)ncc12 [Compound 10], which IC50 is on record?
**A.** 1.19 nM
